Assay results as given in patent US20130041005A1, “PHARMACEUTICAL COMPOSITIONS COMPRISING NEUROPILIN INHIBITORS, AND THEIR USE FOR THE PREVENTION AND/OR TREATMENT OF ANGIOGENIC DISORDERS AND CANCERS” (TRAGEX PHARMA, priority 2011, published 2013).

Experiments:
NRP-2 = target: T1, NRP-2 (Homo sapiens, UniProt O60462); assay: ELISA inhibition of VEGF binding to NRP-2
T1 construct: fused on or other part: Possibly an Fc or His tag on the purchased soluble ectodomain
Protocol: Elisa test was performed covering a 96-well microplate (BD Biosciences, France, cat no 353046) surface with 100 μl of 1×PBS, pH 7.4 with Ca^2+ and Mg^2+, (Lonza, France, cat no 17-513F/12) solution containing 0.2 μg/ml of VEGF-R1 (R&D Systems, UK, cat no 321-FL-050/CF) or 2 μg/ml of NRP-1 (R&D Systems, UK, cat no 3870-N1-025) or NRP-2 (R&D Systems, UK, cat no 321-FL). The plate was sealed and incubated overnight at 4° C. After 3 washes with 200 μl of 1×PBS 0.5% (v/v) Tween 20 (Sigma, France, cat no 34078) (Buffer A), the plate was blocked by adding 200 μl of 1×PBS with 0.5% (w/v) BSA (Eurobio, France, cat no GAUBSA01-65) and agitated at 37° C. for 2 h. After washing five times with Buffer A, 50 μl/well of the compounds of the invention at 10 μM were added for the specific signal and 50 μl/well for the non-specific and max binding signal and incubated at 37° C. for 1 hour, shacking. […] Luminescence was quantified with an EnVision™ 2101 Multilabel reader (Perkin Elmer, USA) and the data analyzed by Wallac Envision manager software. […] Non-specific binding is defined as the signal measured in the absence of receptor coated on the microplate. The specific binding was calculated as the difference between total binding and non-specific binding. The percentage of inhibition was calculated as following: […]

OPM-2 = assay: WST-1 proliferation assay, OPM-2; format: cell-based; conditions: Homo sapiens; Myeloma OPM-2; read-out: Anti-proliferative activity IC50 (μM) ± SD
Protocol: (§1) All the cancer cell lines were maintained in cultured in DMEM GlutaMAX™ (GIBCO Invitrogen, France, cat no 31966047) enhanced with 10% foetal bovine serum (GIBCO Invitrogen, France, cat no 10270-106) and 1% penicillin G/streptomycin (GIBCO Invitrogen, France, cat no 15140-122). Only Panc-10.5 cells were cultivated in RPMI 1640 medium (Gibco) supplemented with 2 mM L-glutamine, 1.5 g/L sodium bicarbonate, 4.5 g/L glucose, 10 mM HEPES, 1 mM sodium pyruvate, 10 Units/ml human insulin, […] (SVF): 15% (75 ml in 500 ml of medium).
(§2) Cells were grown as subconfluent monolayer and cultured in 75 cm^2 flasks at 37° C., 5% CO2 in a humidified atmosphere, and medium was changed every two days. […]
(§3) The cell proliferation WST-1 assay is a colorimetric assay for the quantification of cell proliferation and viability, based on the enzymatic cleavage of the tetrazolium salt WST-1 added to the culture medium, to a water soluble colored formazan dye, detected by absorbance at 450 nm, by mitochondrial succinate-tetrazolium reductase in viable cells. […]
(§4) After an incubation period of 72 h, at day 4, were prepared the 19 ml medium with reagent WST-1 1 ml ([…]). […] The cells were incubated at 37° C. in a humidified atmosphere of 5% CO2 for 1 h 30 and the absorbance at 450-655 nm was measured by Microplate Manager 5.2 (Bio-Rad).

RAJI = assay: WST-1 proliferation assay, RAJI; format: cell-based; conditions: Homo sapiens; Burkitt's lymphoma RAJI; read-out: Anti-proliferative activity IC50 (μM) ± SD
Protocol: as §1, §2, §3, §4

A549 = assay: WST-1 proliferation assay, A549; format: cell-based; conditions: Homo sapiens; Lung A549; read-out: Anti-proliferative activity IC50 (μM) ± SD
Protocol: as §1, §2, §3, §4

T1 sequence (O60462 whole entry, the tested form may be a part): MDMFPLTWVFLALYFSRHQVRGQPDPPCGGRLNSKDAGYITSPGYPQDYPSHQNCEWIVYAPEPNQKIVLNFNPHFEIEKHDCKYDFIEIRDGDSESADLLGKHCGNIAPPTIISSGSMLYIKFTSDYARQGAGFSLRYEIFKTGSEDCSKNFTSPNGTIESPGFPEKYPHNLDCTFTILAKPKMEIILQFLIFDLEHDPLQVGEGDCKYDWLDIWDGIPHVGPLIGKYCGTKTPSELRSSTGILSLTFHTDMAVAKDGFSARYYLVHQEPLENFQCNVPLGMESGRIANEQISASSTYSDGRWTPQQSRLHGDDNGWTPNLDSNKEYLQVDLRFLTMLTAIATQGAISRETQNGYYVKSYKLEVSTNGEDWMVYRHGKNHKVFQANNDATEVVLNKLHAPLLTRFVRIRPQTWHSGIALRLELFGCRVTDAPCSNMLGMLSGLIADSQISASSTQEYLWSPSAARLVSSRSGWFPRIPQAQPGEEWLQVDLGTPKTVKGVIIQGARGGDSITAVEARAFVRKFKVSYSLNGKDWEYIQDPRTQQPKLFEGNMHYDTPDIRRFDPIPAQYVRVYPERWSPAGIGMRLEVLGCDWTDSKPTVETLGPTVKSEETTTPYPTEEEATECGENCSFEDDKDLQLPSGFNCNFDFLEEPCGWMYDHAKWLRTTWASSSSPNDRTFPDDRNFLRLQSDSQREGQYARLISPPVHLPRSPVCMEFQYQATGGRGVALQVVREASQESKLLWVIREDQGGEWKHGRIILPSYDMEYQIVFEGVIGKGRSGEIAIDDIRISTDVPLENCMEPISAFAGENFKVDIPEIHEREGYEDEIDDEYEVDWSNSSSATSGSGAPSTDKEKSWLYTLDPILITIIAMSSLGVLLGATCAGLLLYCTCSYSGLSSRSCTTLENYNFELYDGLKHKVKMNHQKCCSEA

Compound	IC50 (NRP-2) [µM]	IC50 (OPM-2) [µM]	IC50 (RAJI) [µM]	IC50 (A549) [µM]
O=C(NC(=S)Nc1cccc(-c2nc3ccccc3[nH]2)c1)c1ccc2c(c1)OCCO2 [Compound 2, N-[3-(1H-benzimidazol-2-yl)phenyl]-N′-(2,3-dihydro-1,4-benzodioxin-6-ylcarbonyl)thiourea]	35 ± 5.23	0.5 ± 0.01	1.3 ± 0.04	0.1 ± 0.04
Cc1ccc(-c2nc3ccccc3[nH]2)cc1NC(=S)NC(=O)c1ccc2c(c1)OCCO2 [Compound 1, N-[5-(1H-benzimidazol-2-yl)-2-methylphenyl]-N′-(2,3-dihydro-1,4-benzodioxin-6-ylcarbonyl)thiourea]	42 ± 3.15	2.5 ± 0.09	1.5 ± 0.01	0.4 ± 0.04
